Source: patent US8404435B2, “Enigma-Mdm2 interaction and uses thereof” (Korea Research Institute of Bioscience and Biotechnology, priority 2009, dated 2013)

Experiments:
[1] = test system: Mdm2+/+p53-/- MEF cell lines; assay: HGF effect on SRF-Enigma-Mdm2 pathway with or without PD98059; format: cell-based, mouse; details: Ad-p53 or Ad-LacZ induced
Description: Since an MAP kinase is known to be associated with SRF expression by cell growth factor (J Physiol Pharmacol 53, 147-157, 53, 2002), the present inventors hypothesized that an MAP kinase is associated with regulation of SRF-Enigma-Mdm2 pathway, and tested by using PD98059, MAP kinase-specific inhibitor. The present inventors treated the cells with HGF and with or without PD98059 after inducing Ad-p53 or Ad-LacZ into Mdm2^+/+p53^−/− MEF cell lines. As the result, PD98059 abolished the HGF effect on SRF-Enigma-Mdm2 pathway (FIG. 10E).

[2] = test system: MRC5 (human normal fibroblast); assay: Serum response of SRF-Enigma-Mdm2 pathway in MRC5; format: cell-based
Experimental: (§1) The present inventors identified serum response by using MRC5 (human normal fibroblast), MEF (mouse embryonic fibroblast) to identify presence of SRF-Enigma-Mdm2 pathway in normal cells. In case of MRC5, activity of SRF-Enigma-Mdm2 pathway by serum was inhibited when siSRF (10, 15 μg) is induced or PD98059 is present; in case of MEF, activity of SRF-Enigma-Mdm2 pathway was inhibited by PD98059 (FIGS. 12A and 12C). Thus, an amount of protein by transcriptional activity increased for SRF, Enigma, transcript level for Mdm2 (p1-Mdm2) and p53 was unvaried. However, transcript level for p2-Mdm2 changed dependently on an amount of p53 expression (FIGS. 12B and 12D).

[3] = test system: MEF (mouse embryonic fibroblast); assay: Serum response of SRF-Enigma-Mdm2 pathway in MEF; format: cell-based
Experimental: as §1

Mdm2 [4] = target: T1, Mdm2 (Homo sapiens, UniProt Q00987); assay: In vitro binding assay (GST pull-down / IP) of purified proteins; details: proteins purified from E. coli
T1 construct: His; made in house; host or cells: E. coli
Experimental: The present inventors, to test interaction between Enigma and Mdm2, generated mutants (F-PDZ, F-PDZ-LIM1, F-LIM) of Enigma in pCMVtaq2B vector by a common PCR cloning method, and produced mutants (GST-1-100, GST-101-491, GST-201-491, GST-301-491) of Mdm2 in pEBG vector by a PCR cloning method. His-Mdm2, Enigma, GST-p53, EniΔLIM3 proteins were respectively separated and purified from E. coli to identify the interaction in vitro.
In vitro binding assay was performed to identify directly in-vitro interaction between respective proteins (1 μg His-Mdm2, 0.5 μg Enigma, 1 μg GST-p53) which are separated and purified from E. coli. Binding between respective proteins were induced after mixing, the bindings between proteins were identified by a GST pull-down and an IP method.
A binding site was determined by using respective mutants produced from Enigma and Mdm2. First, each mutant vector (5 μg) was introduced into a 293 cell line where Hag-Enigma is constitutively expressed, and afterwards binding was identified by GST pull-down and by a Western blotting with a Hag antibody (FIG. 5D). Also, each Enigma mutant (5 μg) and GST-Mdm2 expression vector (5 μg) were introduced into a 293T cell line (ATCC) by a calcium phosphate method. At 24 hours, the cells were collected, and binding was identified by IP with a Flag antibody and by a Western blotting with a GST antibody (FIG. 5E). […]

Mdm2 [5] = target: T1, Mdm2; assay: In vitro ubiquitination assay; format: biochemical
Experimental: In vitro ubiquitination assay was performed to test self-ubiquitination of Mdm2 by Enigma's binding. After ubiquitin reaction mixture (including E1, E2, His-Ub, ATP) was added and reacted to His-Mdm2 protein (0.5 μg), His-Mdm2 (C464A: 0.5 μg), Enigma protein (0.5, 1 μg), F-EniΔLIM3 (1 μg), a change in self-ubiquitination and binding proteins for Mdm2 were identified by an IP/IB method. As the result, self-ubiquitination of Mdm2 was inhibited by F-Enigma, which binds to Mdm2, and Enigma had no effect on an Mdm2 (C464A) variant where 464-cysteine on the Mdm2 RING finger region was substituted by alanine (FIG. 7C). Also, Enigma stimulated Mdm2-mediated p53 ubiquitination in vitro (FIG. 7D). Thus, Enigma was identified as a determining factor that shifts specificity of Mdm2 E3 ligase from itself toward p53.
PCAF (p300-CBP-associated factor) induces the ubiquitination of Mdm2 (Nat Cell Biol 9, 331-338, 2007). When proteins purified from bacteria and described in FIG. 5-1a were used to perform an in-vitro ubiquitin experiment, Enigma had no effect on Mdm2 ubiquitination by PCAF (FIG. 8A). This event was also tested in an Mdm2^−/−p53^−/− MEF cell line (FIG. 8B).

Enigma promoter = assay: SRE-Luc / ΔSRE-Luc Enigma promoter reporter assay; format: cell-based; details: HLK3; 20, 40 ng/ml, 6 hours
Experimental: After Enigma-Luc was induced into an HLK3 cell line (0.5 μg), was cultured in DMEM with 0.1% […] for 24 hours, and was cultured with 5% and 20% FBS added for 6 hours again, luciferase activity of collected cells were measured. As the result, activity of Enigma-Luc increased dependently on the concentration of serum (FIG. 9B).
After SRE-Luc (0.5 μg), ΔSRE-Luc (0.5 μg), which were produced to test SRF dependence of Enigma expression, were induced into an HLK3 cell line, the cells were cultured in DMEM with 0.1% FBS for 24 hours, and were cultured with 5% and 20% FBS, FGF (20, 40 ng/ml), or HGF (20, 40 ng/ml) added for 6 hours again, luciferase activity of collected cells were measured.

HLK3 cell line = assay: HGF effect on SRF-Enigma-Mdm2-p53 pathway, Western blotting; format: cell-based; details: HGF 40, 60 ng/ml, 4 hours before cell collection
Experimental: The present inventors investigated whether SRF-Enigma-Mdm2 pathway is also regulated by HGF. The present inventors, to show specific relevance of SRF, Enigma, identified changes in each protein by a Western blotting after inducing 10 μg each of siEnigma, siSRF into an HLK3 cell line, culturing them in a condition of removing serum, and processing each with HGF (40, 60 ng/ml) 4 hours before cell collection. […] Furthermore, the present inventors observed a change in Enigma and Mdm2 after directly inducing F-SRF into an HLK3 cell line concentration-wise (5, 10 μg).

mouse liver = assay: SRF-Enigma-Mdm2-p53 pathway in mouse liver, Western blotting; format: in vivo, mice (Balb/c); details: HGF 100 μg/kg into tail vein, livers removed time-wise
Experimental: The present inventors identified a change in SRF-Enigma-Mdm2-p53 by a Western blotting after injecting each of Ad-p53 or Ad-LacZ virus (5×10^8 pfu) into tail vein of mice (Balb/c, Female, Taconic) and after 24 hours injecting HGF (100 μg/kg) into tail vein of mice again, removing livers time-wise. As the result, HGF induced protein expression by transcriptionally activating SRF, Enigma was induced by SRF at transcription level, and an amount of protein increased.
The present inventors, to observe a change in Mdm2-p53 according to a direct change in an amount of Enigma expression, identified an amount of each protein by a Western blotting after injecting or not injecting Ad-p53 into tail vein of mice (Balb/c, Female, Taconic) and after 24 hours injecting Ad-F-Enigma, Ad-LacZ, PBS into tail vein of mice again, removing livers after 48 hours. Furthermore, after injecting Ad-siEnigma, Ad-siControl and PBS into tail vein and injecting HGF into tail vein 8 hours before liver removal.

T1 sequence (Q00987 whole entry): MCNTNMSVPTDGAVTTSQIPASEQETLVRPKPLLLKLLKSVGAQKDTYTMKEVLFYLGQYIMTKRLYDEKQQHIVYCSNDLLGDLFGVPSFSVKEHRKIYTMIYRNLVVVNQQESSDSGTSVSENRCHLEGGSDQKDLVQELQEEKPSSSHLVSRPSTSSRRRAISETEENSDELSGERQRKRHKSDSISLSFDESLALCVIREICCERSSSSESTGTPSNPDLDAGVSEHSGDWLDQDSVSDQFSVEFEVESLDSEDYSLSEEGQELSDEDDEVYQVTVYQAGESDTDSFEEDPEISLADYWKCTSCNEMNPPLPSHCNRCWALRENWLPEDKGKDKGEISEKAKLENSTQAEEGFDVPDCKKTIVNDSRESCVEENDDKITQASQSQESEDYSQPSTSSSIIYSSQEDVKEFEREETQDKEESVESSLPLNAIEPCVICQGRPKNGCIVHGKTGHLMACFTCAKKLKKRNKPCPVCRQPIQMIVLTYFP

Compound: COc1cccc(-c2cc(=O)c3ccccc3o2)c1N [PD98059]
- HGF effect on SRF-Enigma-Mdm2 pathway [1]: abolished
- activity of SRF-Enigma-Mdm2 pathway by serum [2]: inhibited
- activity of SRF-Enigma-Mdm2 pathway [3]: inhibited

Compound: Enigma: Enigma protein separated and purified from E. coli
- binding to Mdm2 in vitro (Mdm2 [4]): bound to Mdm2 directly
- Mdm2-mediated p53 ubiquitination in vitro (Mdm2 [5]): stimulated
- Mdm2 ubiquitination by PCAF in vitro (Mdm2 [5]): no effect
- self-ubiquitination of Mdm2 in vitro (Mdm2 [5]; Enigma protein 0.5, 1 μg, His-Mdm2 0.5 μg): inhibited

Compound: HGF: growth factor
- reporter activity of SRE-Luc but not ΔSRE-Luc (Enigma promoter): increased dependently on the concentration of growth factor
- changes in SRF, Enigma, Mdm2, p53 protein (HLK3 cell line): an increase in SRF-Enigma-Mdm2 and a SRF- or Enigma-dependent decrease in p53
- amount of protein of Mdm2 and p53 in liver (mouse liver): the amount of protein in Mdm2 increased and simultaneously that of p53 decreased
